Tests used:
[1] = design: species or system Sprague-Dawley rats; conditions: rat, in vivo
Protocol: The devices prepared in Example 2 were evaluated in ovariectomized Sprague-Dawley rats. The rats were ovariectomized 2 weeks prior to testing. On the test day the animals were anesthetized with ether and administered with either 10 ug of 17 B-estradiol in sesame oil [0.2 ml by subcutaneous (S.C.) or ingestion (I.G.) routes] or a soluble device containing an equal amount of estradiol placed buccally. Animals were kept anesthetized for approximately 10 minutes after estradiol administration. Trunk blood was collected at various times thereafter.

diestrus rat = test: In-vivo delivery study of histrelin buccal device: induction of ovulation in the diestrus rat; conditions: for ED50 dose (inducing ovulation): buccal tablet
Protocol: The study was designed to measure the ability of the histrelin delivered by the soluble buccal devices of the invention to induce ovulation in the diestrus rat. Devices were prepared by punching 7 mm tablets from the tray containing the lyophilized foam. Each tablet theoretically contained 297 ug of histrelin. Whole, halved and quartered tablets were then placed in the buccal cavity of diestrus rats anesthetized with ether. After 10 minutes the device was absorbed. The following day the rats were sacrificed and the oviducts removed and examined for the presence of ova.

[2] = half buccal tablet, histrelin 150 ug
[3] = quarter buccal tablet, histrelin 75 ug
[4] = whole buccal tablet, histrelin 300 ug

time after which the device was absorbed (diestrus rat; buccal cavity of anesthetized diestrus rats) | SMILES | bioavailability of estradiol administered buccally [1] | ED50 dose (inducing ovulation) (diestrus rat; per body weight) | ED50 dose (inducing ovulation) (diestrus rat; per rat) | inducing ovulation (result in words) (diestrus rat; buccal tablets) | # of Rats Ovulating/Total # of Rats (diestrus rat; [2]) | Ova/Rat (diestrus rat; [2]) | # of Rats Ovulating/Total # of Rats (diestrus rat; [3]) | Ova/Rat (diestrus rat; [3]) | # of Rats Ovulating/Total # of Rats (diestrus rat; [4]) | Ova/Rat (diestrus rat; [4])
 | C[C@]12CC[C@@H]3c4ccc(O)cc4CC[C@H]3[C@@H]1CC[C@@H]2O [Estradiol, 17 B-estradiol] | greater than oral administration but less than administered by injection |  |  |  |  |  |  |  |  | 
10 min | CCNC(=O)[C@@H]1CCCN1C(=O)[C@H](CCCNC(=N)N)NC(=O)[C@H](CC(C)C)NC(=O)[C@@H](Cc1cn(Cc2ccccc2)cn1)NC(=O)[C@H](Cc1ccc(O)cc1)NC(=O)[C@H](CO)NC(=O)[C@H](Cc1c[nH]c2ccccc12)NC(=O)[C@H](Cc1cnc[nH]1)NC(=O)[C@@H]1CCC(=O)N1 [Histrelin] |  | ~300 µg/kg | approximately 75 ug/rat | effective in inducing ovulation in a dose-dependent manner | 4/5 | 8 | 4/6 | 6 | 6/6 | 13

Reference: patent US5891458A, “Bioerodible device for administering active ingredients” (priority 1997, dated 1999)
